Test results: US11186590B2, “Somatostatin modulators and uses thereof” (CRINETICS PHARMACEUTICALS, INC., priority 2018, dated 2021)

Molecular target: hSSTR4 (Homo sapiens (Human), UniProt P31391)
Sequence (P31391 whole entry): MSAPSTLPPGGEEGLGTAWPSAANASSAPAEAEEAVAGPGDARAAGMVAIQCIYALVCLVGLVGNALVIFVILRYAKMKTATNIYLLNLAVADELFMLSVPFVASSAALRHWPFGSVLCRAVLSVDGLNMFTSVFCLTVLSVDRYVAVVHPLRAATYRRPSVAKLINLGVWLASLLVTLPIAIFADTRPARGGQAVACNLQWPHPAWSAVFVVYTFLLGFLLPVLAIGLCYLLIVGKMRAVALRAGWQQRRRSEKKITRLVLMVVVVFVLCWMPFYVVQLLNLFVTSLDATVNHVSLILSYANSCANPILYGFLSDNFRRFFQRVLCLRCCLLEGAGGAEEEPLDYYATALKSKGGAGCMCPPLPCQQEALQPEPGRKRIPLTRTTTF
Assay: selectivity for inhibition of cAMP via hSSTR2 vs. hSSTR4
Format: cell-based
Details: Table B
Excerpt: General overview: All five SSTR subtypes are Gi coupled G-protein coupled receptors (GPCRs) that lead to decreases in intracellular cyclic AMP (cAMP) when activated by an agonist. Therefore, measurement of intracellular cAMP levels can be used to assess whether compounds of the invention are agonists of SSTR subtypes (John Kelly, Troy Stevens, W. Joseph Thompson, and Roland Seifert, Current Protocols in Pharmacology, 2005, 2.2.1-2.2). One example of an intracellular cAMP assay is described below.
Four days prior to the assay, 5,000 Chinese hamster ovary cells (CHO-K1, ATCC #CCL-61) stably expressing the human somatostatin receptor subtype 2 are plated in each well of a 96-well tissue culture-treated plate in Ham's F12 growth media (ThermoFisher #10-080-CM) supplemented with 10% donor bovine serum (Gemini Bio-Products #100-506), 100 U/mL penicillin; 100 ug/mL streptomycin; 2 mM L-glutamine (Gemini Bio-Products #400-110) and 0.2 mg/mL hygromycin B (GoldBio #31282-04-9). The cells are cultured at 37° C., 5% CO2 and 95% humidity. On the day of the assay, the media is aspirated and the cells are treated with 50 μL of 1.6 μM NKH477 (Sigma #N3290) plus various dilutions of compounds of the invention in assay buffer [1× Hank's Balanced Salt Solution (ThermoFisher #SH3058802), 0.5 mM HEPES pH 7.4, 0.1% bovine serum albumin, 0.2 mM 3-Isobutyl-1-methylxanthine (IBMX, VWR #200002-790)]. The cells are incubated for 20 minutes at 37° C. (the final concentration of the compounds of the invention are typically 0-10,000 nM). The cells are treated with 50 μL of lysis buffer (HRTF cAMP kit, Cisbio). The lysate is transferred to 384-well plates and cAMP detection and visualization antibodies are added and incubated for 1-24 hours at room temperature. The time-resolved fluorescent signal is read with a Tecan M1000Pro multiplate reader. The intracellular cAMP concentrations are calculated by regression to a standard curve and are plotted vs. the concentration of the compounds of the invention and the EC50 of the compounds are calculated using standard methods. All data manipulations are in GraphPad Prism v6.
With `COc1cc(C#N)cc2[nH]c(-c3c(N)ncc(-c4cc(C)cc(F)c4)c3N3CCC(N)CC3)nc12` [Compound 1-1, 2-[2-amino-4-(4-aminopiperidin-1-yl)-5-(3-fluoro-5-methylphenyl)pyridin-3-yl]-4-methoxy-1H-1,3-benzodiazole-6-carbonitrile] the “hSST4/hSST2 (ratio)” value was “a (a = above 50)”. For `COC(=O)c1ncc(-c2cc(C)cc(F)c2)c(N2CCC(N)CC2)c1-c1nc2cc(F)cc(OC)c2[nH]1` [Compound 2-1, methyl 4-(4-aminopiperidin-1-yl)-3-(6-fluoro-4-methoxy-1H-1,3-benzodiazol-2-yl)-5-(3-fluoro-5-methylphenyl)pyridine-2-carboxylate], the “hSST4/hSST2 (ratio)” value was “d (d = between 1 and 2.5)”. For `COc1cc(F)cc2nc(-c3c(C#N)ncc(-c4cc(C)cc(F)c4)c3N3CCC(N)CC3)[nH]c12` [Compound 2-2, 4-(4-aminopiperidin-1-yl)-3-(6-fluoro-4-methoxy-1H-1,3-benzodiazol-2-yl)-5-(3-fluoro-5-methylphenyl)pyridine-2-carbonitrile], the “hSST4/hSST2 (ratio)” value was “e (e = between 1 and 0.5)”. With `COc1cc(F)cc2nc(-c3c(C(N)=O)ncc(-c4cc(C)cc(F)c4)c3N3CCC(N)CC3)[nH]c12` [Compound 2-3, 4-(4-aminopiperidin-1-yl)-3-(6-fluoro-4-methoxy-1H-1,3-benzodiazol-2-yl)-5-(3-fluoro-5-methylphenyl)pyridine-2-carboxamide] the “hSST4/hSST2 (ratio)” value was “b (b = between 15 and 50)”.

Same assay, conditions: Table C
For `Nc1ncc(-c2cccc(F)c2)c(N2CC[C@@H]3NCCO[C@H]3C2)c1-c1nc2c(F)cc(F)cc2[nH]1` [Compound 3-3, 4-[(4αS,8αS)-octahydro-1H-pyrido[3,4-b][1,4]oxazin-6-yl]-3-(4,6-difluoro-1H-1,3-benzodiazol-2-yl)-5-(3-fluorophenyl)pyridin-2-amine], the “hSST4/hSST2 (ratio)” value was “c (c = between 2.5 and 15)”. For `COc1cc(F)cc2[nH]c(-c3c(N)ncc(-c4cccc(F)c4)c3N3CC[C@@H]4NCCO[C@H]4C3)nc12` [Compound 3-9, 4-[(4αS,8αS)-octahydro-1H-pyrido[3,4-b][1,4]oxazin-6-yl]-3-(6-fluoro-4-methoxy-1H-1,3-benzodiazol-2-yl)-5-(3-fluorophenyl)pyridin-2-amine], the “hSST4/hSST2 (ratio)” value was “c (c = between 2.5 and 15)”. With `CNc1ncc(-c2cccc(F)c2)c(N2CC[C@@H]3NCCO[C@H]3C2)c1-c1nc2c(OC)cc(F)cc2[nH]1` [Compound 3-10, 4-[(4αS,8αS)-octahydro-1H-pyrido[3,4-b][1,4]oxazin-6-yl]-3-(6-fluoro-4-methoxy-1H-1,3-benzodiazol-2-yl)-5-(3-fluorophenyl)-N-methylpyridin-2-amine] the “hSST4/hSST2 (ratio)” value was “a (a = above 50)”. In the case of `COc1cc(C#N)cc2[nH]c(-c3c(N)ncc(-c4cccc(F)c4)c3N3CC[C@@H]4NCCO[C@H]4C3)nc12` [Compound 3-11, 2-{4-[(4αS,8αS)-octahydro-1H-pyrido[3,4-b][1,4]oxazin-6-yl]-2-amino-5-(3-fluorophenyl)pyridin-3-yl}-4-methoxy-1H-1,3-benzodiazole-6-carbonitrile], the “hSST4/hSST2 (ratio)” value was “a (a = above 50)”. In the case of `CNc1ncc(-c2cccc(F)c2)c(N2CC[C@@H]3NCCO[C@H]3C2)c1-c1nc2c(OC)cc(C#N)cc2[nH]1` [Compound 3-12, 2-[4-[(4αS,8αS)-octahydro-1H-pyrido[3,4-b][1,4]oxazin-6-yl]-5-(3-fluorophenyl)-2-(methylamino)pyridin-3-yl]-4-methoxy-1H-1,3-benzodiazole-6-carbonitrile], the “hSST4/hSST2 (ratio)” value was “a (a = above 50)”. With `CNc1ncc(-c2cc(F)cc(Cl)c2)c(N2CC[C@@H]3NCCO[C@H]3C2)c1-c1nc2c(OC)cc(F)cc2[nH]1` [Compound 3-13, 4-[(4αS,8αS)-octahydro-1H-pyrido[3,4-b][1,4]oxazin-6-yl]-5-(3-chloro-5-fluorophenyl)-3-(6-fluoro-4-methoxy-1H-1,3-benzodiazol-2-yl)-N-methylpyridin-2-amine] the “hSST4/hSST2 (ratio)” value was “a (a = above 50)”. In the case of `COc1cc(F)cc2[nH]c(-c3c(N)ncc(-c4cc(F)cc(Cl)c4)c3N3CC[C@@H]4OCCN[C@H]4C3)nc12` [Compound 3-17, 4-[(4αS,8αS)-octahydro-1H-pyrido[3,4-b][1,4]oxazin-6-yl]-5-(3-chloro-5-fluorophenyl)-3-(6-fluoro-4-methoxy-1H-1,3-benzodiazol-2-yl)pyridin-2-amine], the “hSST4/hSST2 (ratio)” value was “c (c = between 2.5 and 15)”. In the case of `COc1cc(C#N)cc2[nH]c(-c3c(N)ncc(-c4cc(F)cc(F)c4)c3N3CC[C@@H]4NCCO[C@H]4C3)nc12` [Compound 3-18, 2-{4-[(4αS,8αS)-octahydro-1H-pyrido[3,4-b][1,4]oxazin-6-yl]-2-amino-5-(3,5-difluorophenyl)pyridin-3-yl}-4-methoxy-1H-1,3-benzodiazole-6-carbonitrile], the “hSST4/hSST2 (ratio)” value was “b (b = between 15 and 50)”. In the case of `N#Cc1cc(F)c2nc(-c3c(N)ncc(-c4cc(F)cc(F)c4)c3N3CC[C@@H]4OCCN[C@H]4C3)[nH]c2c1` [Compound 3-19, 2-{4-[(4αS,8αS)-octahydro-1H-pyrido[3,4-b][1,4]oxazin-6-yl]-2-amino-5-(3,5-difluorophenyl)pyridin-3-yl}-4-fluoro-1H-1,3-benzodiazole-6-carbonitrile], the “hSST4/hSST2 (ratio)” value was “b (b = between 15 and 50)”.

Tested on: not listed separately
Assay: Liver microsomal stability assay
Format: in vitro ADME
Details: human liver microsomes, 0.5 mg/mL protein, 37° C.
Procedure: The in vitro stabilities of compounds of interest were determined for various species using pooled male and female human, pooled male Sprague-Dawley rat, pooled male Cynomolgus monkey, and pooled male Beagle dog liver microsomes at microsomal protein concentrations of 0.5 mg/mL. Incubations were carried out in a potassium phosphate buffer (50 mM). The NADPH-generating system was composed of NADP+ (1 mM), magnesium chloride (3 mM), EDTA (1 mM), glucose-6-phosphate (5 mM) and glucose-6-phosphate dehydrogenase (1 Unit/mL) for all experiments. Compounds of interest in DMSO were added to achieve a final incubation concentration of […] (final DMSO content was 0.1% v/v and final acetonitrile content was 0.9%). The final incubation volume was 400 μL. Incubations were conducted at 37° C. for 0, 5, 10, 20, 40 and 60 minutes in a shaking water bath and terminated by removing 50 µL of incubation mixture and adding to 100 μL of ice cold acetonitrile containing internal standard. Following precipitation by centrifugation at 3500 rpm and 4° C. for 30 minutes, compounds of interest and internal standard were analyzed in the resultant supernatant using a multiple reaction monitoring (MRM) LC-MS/MS method. MS conditions were optimized for each analyte.
The following Table (Table D) illustrates human liver microsomal stability of exemplary compounds.
For `COc1cc(C#N)cc2[nH]c(-c3c(N)ncc(-c4cc(F)cc(F)c4)c3N3CC[C@@H]4NCCO[C@H]4C3)nc12` [Compound 3-18, 2-{4-[(4αS,8αS)-octahydro-1H-pyrido[3,4-b][1,4]oxazin-6-yl]-2-amino-5-(3,5-difluorophenyl)pyridin-3-yl}-4-methoxy-1H-1,3-benzodiazole-6-carbonitrile], the “HLM t1/2” value was 99 min.
